# Measured values reported in patent US8759535B2, “Substituted fused imidazole derivatives, pharmaceutical compositions, and methods of use thereof” (High Point Pharmaceuticals, LLC, priority 2010, dated 2014).
# Counter-ions that a name gives are not always drawn.
# System: HMOX1
# Experiment: HMOX1 Protein Assay (immunostaining of HO-1 in NHLF cells, GE InCell 1000)
# Assay type: cell-based
# Details: Homo sapiens, fold change above DMSO treated cells, 3 μM compound (asterisk), 16 h
# How it was run: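 NHLF cells seeded overnight in FGM-2, then exposed to compound or DMSO vehicle for 16 h, fixed, and immunostained for HO-1 with Hoechst nuclear counterstain; imaged on InCell 1000. Values are fold change over DMSO-treated cells, generally at 5 μM (0.8% DMSO), with asterisked entries at 3 μM.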
row,Structure (SMILES),fold induction at 3 µM
1,"Cn1c(Nc2nc3ccc(C(F)(F)F)cc3s2)nc2cc(C(=O)NCC(=O)N3CCC[C@@H](O)C3)ccc21 [Example 432, 1-Methyl-2-(6-trifluoromethyl-benzothiazol-2-ylamino)-1H-benzoimidazole-5-carboxylic acid [2-((R)-3-hydroxy-piperidin-1-yl)-2-oxo-ethyl]-amide]",27.3
2,"CN(C)C(=O)[C@H](CCCCN)NC(=O)c1ccc2c(c1)nc(Nc1nc3ccc(C(F)(F)F)cc3s1)n2C [Example 369, 1-Methyl-2-(6-trifluoromethyl-benzothiazol-2-ylamino)-1H-benzoimidazole-5-carboxylic acid ((S)-5-amino-1-dimethylcarbamoyl-pentyl)-amide hydrochloride]",22.4
3,"Cn1c(Nc2nc3ccc(Cl)cc3s2)nc2cc(C(=O)NCC(=O)N3CC[C@H](O)C3)ccc21 [Example 401, 2-(6-Chloro-benzothiazol-2-ylamino)-1-methyl-1H-benzoimidazole-5-carboxylic acid [2-((S)-3-hydroxy-pyrrolidin-1-yl)-2-oxo-ethyl]-amide]",27
4,"CN1CCN(C(=O)CNC(=O)c2ccc3c(c2)nc(Nc2nc4ccc(C(F)(F)F)cc4s2)n3C)CC1 [Example 427, 1-Methyl-2-(6-trifluoromethyl-benzothiazol-2-ylamino)-1H-benzoimidazole-5-carboxylic acid [2-(4-methyl-piperazin-1-yl)-2-oxo-ethyl]-amide]",17
5,"Cn1c(Nc2nc3ccc(C(F)(F)F)cc3s2)nc2cc(C(=O)NC[C@H]3CC[C@H](O)CC3)ccc21 [Example 234, 1-Methyl-2-(6-trifluoromethyl-benzothiazol-2-ylamino)-1H-benzoimidazole-5-carboxylic acid (trans-4-hydroxy-cyclohexylmethyl)-amide]",30.9
6,"CCN(CC)CCCNC(=O)c1ccc2c(c1)nc(Nc1nc3ccc(Cl)cc3s1)n2C [Example 352, 2-(6-Chloro-benzothiazol-2-ylamino)-1-methyl-1H-benzoimidazole-5-carboxylic acid (3-diethylamino-propyl)-amide]",20
7,"CO[C@H]1CCCN(C(=O)CNC(=O)c2ccc3c(c2)nc(Nc2nc4ccc(C(F)(F)F)cc4s2)n3C)C1 [Example 445, 1-Methyl-2-(6-trifluoromethyl-benzothiazol-2-ylamino)-1H-benzoimidazole-5-carboxylic acid [2-((S)-3-methoxy-piperidin-1-yl)-2-oxo-ethyl]-amide]",36.4
8,"CC(O)CCNC(=O)c1ccc2c(c1)nc(Nc1nc3ccc(Cl)cc3s1)n2C (centres unmarked) [Example 215, 2-(6-Chloro-benzothiazol-2-ylamino)-1-methyl-1H-benzoimidazole-5-carboxylic acid (3-hydroxy-butyl)-amide]",16
9,"CO[C@@H]1CCN(C(=O)CNC(=O)c2ccc3c(c2)nc(Nc2nc4ccc(Cl)cc4s2)n3C)C1 [Example 408, 2-(6-Chloro-benzothiazol-2-ylamino)-1-methyl-1H-benzoimidazole-5-carboxylic acid [2-((R)-3-methoxy-pyrrolidin-1-yl)-2-oxo-ethyl]-amide]",25

# Same assay, conditions: Homo sapiens, fold change above DMSO treated cells, 5 μM compound, 16 h
row,Structure (SMILES),fold induction at 5 µM
1,"Cn1c(Nc2nc3ccc(Cl)cc3s2)nc2cc(C(=O)NCC(=O)N[C@@H]3CCCNC3)ccc21 [Example 387, 2-(6-Chloro-benzothiazol-2-ylamino)-1-methyl-1H-benzoimidazole-5-carboxylic acid ((R)-piperidin-3-ylcarbamoylmethyl)-amide hydrochloride]",19.9
2,"CN(C)C(=O)CNC(=O)c1ccc2c(c1)nc(Nc1nc3ccc(Cl)cc3s1)n2C [Example 133, 2-(6-Chloro-benzothiazol-2-ylamino)-1-methyl-1H-benzimidazole-5-carboxylic acid dimethylcarbamoylmethyl-amide]",45.9
3,"Cn1c(Nc2nc3ccc(OC(F)(F)F)cc3s2)nc2cc(C(=O)N3CCC(CCCO)CC3)ccc21 [Example 307, [4-(3-Hydroxy-propyl)-piperidin-1-yl]-[1-methyl-2-(6-trifluoromethoxy-benzothiazol-2-ylamino)-1H benzoimidazol-5-yl]-methanone]",31.5
4,"CNC(=O)c1ccc2c(c1)nc(Nc1nc3ccc(OC(F)(F)F)cc3s1)n2CCF [Example 170, 1-(2-Fluoro-ethyl)-2-(6-trifluoromethoxy-benzothiazol-2-ylamino)-1H-benzoimidazole-5-carboxylic acid methylamide]",23
5,"CCN(CC)c1cc2c(cc1C(=O)O)nc(Nc1nc3ccc(OC(F)(F)F)cc3s1)n2C [Example 70, 6-Diethylamino-1-methyl-2-(6-trifluoromethoxy-benzothiazol-2-ylamino)-1H-benzoimidazole-5-carboxylic acid]",21.4
6,"CN(C)CC1CCN(C(=O)CNC(=O)c2ccc3c(c2)nc(Nc2nc4ccc(OC(F)(F)F)cc4s2)n3C)CC1 [Example 458, 1-Methyl-2-(6-trifluoromethoxy-benzothiazol-2-ylamino)-1H-benzoimidazole-5-carboxylic acid [2-(4-dimethylaminomethyl-piperidin-1-yl)-2-oxo-ethyl]-amide]",68.5
7,"C[C@@H](O)CNC(=O)c1ccc2c(c1)nc(Nc1nc3ccc(OC(F)(F)F)cc3s1)n2C [Example 51, 1-Methyl-2-(6-trifluoromethoxy-benzothiazol-2-ylamino)-1H-benzoimidazole-5-carboxylic acid ((R)-2-hydroxy-propyl)-amide]",9.9
8,"Cn1c(Nc2nc3ccc(OC(F)(F)F)cc3s2)nc2cc(C(=O)NCCOCCO)c(F)cc21 [Example 237, 6-Fluoro-1-methyl-2-(6-trifluoromethoxy-benzothiazol-2-ylamino)-1H-benzoimidazole-5-carboxylic acid [2-(2-hydroxy-ethoxy)-ethyl]-amide]",30.6
9,"Cn1c(Nc2nc3ccc(OC(F)(F)F)cc3s2)nc2cc(C(=O)NCc3ccco3)ccc21 [Example 48, 1-Methyl-2-(6-trifluoromethoxy-benzothiazol-2-ylamino)-1H-benzoimidazole-5-carboxylic acid (furan-2-ylmethyl)-amide]",15.8
10,"CC(O)CNC(=O)c1cc2nc(Nc3nc4ccc(OC(F)(F)F)cc4s3)n(C)c2cc1F (centres unmarked) [Example 60, 6-Fluoro-1-methyl-2-(6-trifluoromethoxy-benzothiazol-2-ylamino)-1H-benzoimidazole-5-carboxylic acid (2-hydroxy-propyl)-amide]",39.8
11,"CCOCCNC(=O)c1cc2nc(Nc3nc4ccc(OC(F)(F)F)cc4s3)n(C)c2cc1OC [Example 65, 6-Methoxy-1-methyl-2-(6-trifluoromethoxy-benzothiazol-2-ylamino)-1H-benzoimidazole-5-carboxylic acid (2-ethoxy-ethyl)-amide]",10.2
12,"C[C@H](O)C(=O)NCCNC(=O)c1ccc2c(c1)nc(Nc1nc3ccc(OC(F)(F)F)cc3s1)n2C [Example 326, 1-Methyl-2-(6-trifluoromethoxy-benzothiazol-2-ylamino)-1H-benzoimidazole-5-carboxylic acid [2-((S)-2-hydroxy-propionylamino)-ethyl]-amide]",34.3
13,"Cn1c(Nc2nc3ccc(OC(F)(F)F)cc3s2)nc2cc(C(=O)NCCS(C)(=O)=O)ccc21 [Example 102, 1-Methyl-2-(6-trifluoromethoxy-benzothiazol-2-ylamino)-1H-benzoimidazole-5-carboxylic acid (2-methanesulfonyl-ethyl)-amide]",22.6
14,"Cn1c(Nc2nc3ccc(OC(F)(F)F)cc3s2)nc2cc(C(=O)NCC(=O)N(CCO)CCO)ccc21 [Example 392, 1-Methyl-2-(6-trifluoromethoxy-benzothiazol-2-ylamino)-1H-benzoimidazole-5-carboxylic acid {[bis-(2-hydroxy-ethyl)-carbamoyl]-methyl}-amide]",24.9
15,"CCNC(=O)c1ccc2c(c1)nc(Nc1nc3ccc(Cl)cc3s1)n2CC [Example 175, 2-(6-Chloro-benzothiazol-2-ylamino)-1-ethyl-1H-benzoimidazole-5-carboxylic acid ethylamide]",28.7
16,"Cn1c(Nc2nc3ccc(OC(F)(F)F)cc3s2)nc2cc(C(=O)NCC(=O)N3CCCC(CO)C3)ccc21 (centres unmarked) [Example 440, 1-Methyl-2-(6-trifluoromethoxy-benzothiazol-2-ylamino)-1H-benzoimidazole-5-carboxylic acid [2-(3-hydroxymethyl-piperidin-1-yl)-2-oxo-ethyl]-amide]",28.2
17,"Cn1c(Nc2nc3ccc(OC(F)(F)F)cc3s2)nc2cc(C(=O)NCCNS(C)(=O)=O)ccc21 [Example 322, 1-Methyl-2-(6-trifluoromethoxy-benzothiazol-2-ylamino)-1H-benzoimidazole-5-carboxylic acid (2-methanesulfonylamino-ethyl)-amide]",36
18,"Cn1c(Nc2nc3ccc(OC(F)(F)F)cc3s2)nc2cc(C(=O)NCCOCCO)cnc21 [Example 238, 3-Methyl-2-(6-trifluoromethoxy-benzothiazol-2-ylamino)-3H-imidazo[4,5-b]pyridine-6-carboxylic acid [2-(2-hydroxy-ethoxy)-ethyl]-amide]",33
19,"CN(C)CC(=O)N1CC[C@@H](NC(=O)c2ccc3c(c2)nc(Nc2nc4ccc(Cl)cc4s2)n3C)C1 [Example 308, 2-(6-Chloro-benzothiazol-2-ylamino)-1-methyl-1H-benzoimidazole-5-carboxylic acid [(R)-1-(2-dimethylamino-acetyl)-pyrrolidin-3-yl]-amide]",24.3
20,"Cn1c(Nc2nc3ccc(Cl)cc3s2)nc2cc(C(=O)NCCNCCF)ccc21 [Example 279, 2-(6-Chloro-benzothiazol-2-ylamino)-1-methyl-1H-benzoimidazole-5-carboxylic acid [2-(2-fluoro-ethylamino)-ethyl]-amide hydrochloride]",89.2
